# Assay results from patent US6410575B1, “Viral treatment” (The Procter & Gamble Company, priority 1999, dated 2002).
# “And” between values parts separate entries of the source, which are not always exact repeats. Identical values can stand only once. Like-named read-outs stand apart in the source and are kept apart here.
# What was measured:
# hepatitis B = assay: In vitro virus production test of hepatitis B, HEPG2 2.2.15; assay type: cell-based
# HEPG2 2.2.15 = assay: Toxicity values in the hepatitis B test; assay type: cell-based; design: Toxicity Values, sample / Toxicity Values, mean: unit not given here
# Cryptococcus neoformans = assay: Anti-fungal activity, MFC (NCCLS M-27A based); assay type: cell-based; conditions: cidal level
# Method: (§1) It was active against Cryptococcus neoformans and Curvularia lunata. The cidal activity for the C. neoformans is high enough that it is clear […] against this yeast. This test was conducted using a method based upon NCCLS reference method M-27A published in 1997. Solvent, medium and growth controls were set-up with the tests. Once these were read to validate the test performance, the QC fungi were read to insure they had expected results. These steps validated the test system. DMSO was used as a drug-chemical solvent. […] The 90% cut-off is necessary for azoles, which are static and not cidal. The […] or cidal level, was determined by sub-culturing a sample from each tube showing no growth.
# Curvularia lunata = assay: Anti-fungal activity, MIC (NCCLS M-27A based); assay type: cell-based; conditions: growth inhibited or reduced at least 90%
# Method: as §1
# vero cells = assay: Herpes simplex testing, toxicity (TC50); design: unit not given beside the values
# [1] = test system: Human Herpes Virus 8 (HHV8); assay: Kaposi's sarcoma / HHV8 DNA copy number in TPA-induced BCBL-1 cells; assay type: cell-based; conditions: HHV8, BCBL-1 cells
# Method: (§2) The DNA copy number and the toxicity value were measured and compared with Cidofovir. Kaposi's sarcoma (KS) is a cancer that is often found in people with weak immune systems, such as those taking immunosuppressants or those with AIDS. The exact nature of the disease is uncertain, but it is almost always found in association with HHV8.
# TPA-induced BCBL-1 cells = assay: Toxicity values in the HHV8 test; assay type: cell-based
# Method: (§3) Toxicity quantification involves the XTT-based evaluation. Assays were designed to characterize the long term effects of the compounds on virus production and to characterize the longer term effects of the compounds on virus production from chronically HIV infected cells.
# as §2
# [2] = Toxicity values in the HHV8 test; assay type: cell-based; conditions: human, TPA-induced BCBL-1 cells; read-out: TC50 (the source's name)
# Method: as §3, §2
# BVDV = BVDV testing in vitro; assay type: cell-based, bovine diarrhea virus; conditions: first test
# Excerpt: DMSO had no effect, as expected.
# BVDV is a bovine diarrhea virus and is a well known surrogate virus for hepatitis C which cannot be cultured in vitro.
smiles,measurement,setting,value
"Nc1ccn([C@@H]2CS[C@H](CO)O2)c(=O)n1 [3TC, lamivudine, reference compound]","DNA Copy Number (per 3 μl), sample",hepatitis B; 0.1 μg/ml,73.0 per 3 μl
same,% virus control,hepatitis B; 1 μg/ml,1.4%
same,"DNA Copy Number (per 3 μl), mean",hepatitis B; 1 μg/ml,4.0 per 3 μl
same,IC50,"hepatitis B; Hepatitis B virus, HepG2 2.2.15",0.021 µg/mL
same,IC50,"hepatitis B; hepatitis B, HEPG2 2.2.15",0.089 µg/mL
same,% cell control,HEPG2 2.2.15; 0.0032 μg/ml,90.8%
same,"Toxicity Values, mean",HEPG2 2.2.15; 0.0032 μg/ml,1.137
same,"Toxicity Values, sample",HEPG2 2.2.15; 0.0032 μg/ml,1.173 and 1.230 and 1.009
same,% cell control,HEPG2 2.2.15; 0.01 μg/ml,84.6%
same,"Toxicity Values, mean",HEPG2 2.2.15; 0.01 μg/ml,1.060
same,"Toxicity Values, sample",HEPG2 2.2.15; 0.01 μg/ml,1.081 and 1.099 and 1.001
same,% cell control,HEPG2 2.2.15; 0.032 μg/ml,94.3%
same,"Toxicity Values, mean",HEPG2 2.2.15; 0.032 μg/ml,1.181
same,"Toxicity Values, sample",HEPG2 2.2.15; 0.032 μg/ml,1.153 and 1.316 and 1.074
same,"Toxicity Values, mean",HEPG2 2.2.15; 0.1 μg/ml,1.190
same,% cell control,HEPG2 2.2.15; 0.32 μg/ml,93.6%
same,"Toxicity Values, mean",HEPG2 2.2.15; 0.32 μg/ml,1.172
same,"Toxicity Values, sample",HEPG2 2.2.15; 0.32 μg/ml,1.207 and 1.227 and 1.082
same,% cell control,HEPG2 2.2.15; 1 μg/ml,106.5%
same,"Toxicity Values, mean",HEPG2 2.2.15; 1 μg/ml,1.334
same,"Toxicity Values, sample",HEPG2 2.2.15; 1 μg/ml,1.256 and 1.322 and 1.423
same,TC50,HEPG2 2.2.15; HEPG2 2.2.15,> 1 µg/mL
same,TC50,"HEPG2 2.2.15; HEPG2 2.2.15, replicate experiment",> 1 µg/mL
"C[C@@H]1[C@H](O)[C@@H](C)/C=C/C=C/C=C/C=C/C=C/C=C/C=C/[C@H](O[C@@H]2O[C@H](C)[C@@H](O)[C@H](N)[C@@H]2O)C[C@@H]2O[C@](O)(C[C@@H](O)C[C@@H](O)[C@H](O)CC[C@@H](O)C[C@@H](O)CC(=O)O[C@H]1C)C[C@H](O)[C@H]2C(=O)O [AmB, amphotericin B]",MFC,Cryptococcus neoformans,0.5 µg/mL
same,MIC,Curvularia lunata,0.06 µg/mL
"COC(=O)Nc1nc2ccccc2[nH]1 [Methyl, methyl 1,2-benzmimidazole carbamate or benomyl]",MFC,Cryptococcus neoformans,32 µg/mL
same,MIC,Curvularia lunata,0.03 µg/mL
"Nc1nc2c(ncn2COCCO)c(=O)[nH]1 [Acyclovir, reference compound]",TC50,vero cells,> 1
"Nc1ccn(C[C@@H](CO)OCP(=O)(O)O)c(=O)n1 [Cidofovir, reference compound]",TI,[1],TI = 19.2
same,% cell control,TPA-induced BCBL-1 cells; 0.08 μM,83.9%
same,% cell control,TPA-induced BCBL-1 cells; 0.25 μM,90.1%
same,% cell control,TPA-induced BCBL-1 cells; 0.8 μM,82.8%
same,% cell control,TPA-induced BCBL-1 cells; 2.5 μM,75.0%
same,% cell control,TPA-induced BCBL-1 cells; 8 μM,69.3%
same,% cell control,TPA-induced BCBL-1 cells; 25 μM,4403%
same,CC50,[2],21.1 µM
"c1ccc2[nH]c(-c3cscn3)nc2c1 [Thia, thiabendazole]",MFC,Cryptococcus neoformans; read-out: MFC,32 µg/mL
same,MIC,Curvularia lunata; read-out: MIC,0.03 µg/mL
"NC(=O)c1ncn([C@@H]2O[C@H](CO)[C@@H](O)[C@H]2O)n1 [Ribavirin, reference compound]","Antiviral Index (AI), TC50/IC50",BVDV,2.25
"CCC(C)n1ncn(-c2ccc(N3CCN(c4ccc(OCC5COC(Cn6cncn6)(c6ccc(Cl)cc6Cl)O5)cc4)CC3)cc2)c1=O (stereo not shown) [Itra, Itraconazole]",MFC,Cryptococcus neoformans; read-out: MFC,32 µg/mL
